Molecules are shown by their SMILES. Several values for one entry are separate records, joined by “and”; a condition that tells them apart may be missing. Identical values can stand only once.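 Each compound was tested at five concentrations against cells in 96-well plates for 48 hours. Abbreviation: GI50, concentration required for 50% inhibition of growth. TGI marks complete inhibition of growth.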

Experimental findings from PubChem BioAssay (NCI) are described below.

This test relates to MDA-MB-468 breast. The test can be described thus: NCI anticancer screen, dose series, 48 h.
As for `CCCCc1cc(O)ccc1O`, the GI50 is 14 µM and the TGI was 31.7 µM.
The like results for `O=C1NC(=O)C(c2ccccc2Cl)=C1Nc1cccc(O)c1` were, in that order, 0.706 µM and 7.16 µM.
For the compound `Cn1cnc([N+](=O)[O-])c1Sc1ncnc2nc[nH]c12`, the GI50 was 2.1 µM and 3.37 µM; the TGI is 70.3 µM and > 100 µM.
In the case of `CC/C=C\C[C@H](O)C/C=C1/C(=O)C=C[C@@H]1C/C=C\CCCC(N)=O`, the GI50 is 1.12 µM and the TGI came out at 2.86 µM.
For the compound `O=C(Nc1ccc(Br)cc1)c1cc(Br)cc(Br)c1O`, the GI50 is 2.32 µM and the TGI came out at 5.66 µM.
As to `Cc1ccc(-c2cc3nc(-c4ccccc4)nc(C(Cl)Cl)n3n2)cc1`, the GI50 was 0.383 µM and the TGI was 1.31 µM.
Turning to `CCOC(=O)/C=C/c1ccc(C(=O)OCC)[nH]1`, the GI50 is 2.53 µM and the TGI amounted to 8.16 µM.
The like results for `CS(=O)(=O)Nc1cc(-c2ccc3ncc(C#N)c(NCc4ccccc4F)c3c2)cnc1Cl` were, in that order, 0.0781 µM and 1.08 µM.
With `ClCCn1cnc2c(SCc3ccccc3)ncnc21`, the GI50 is 11.1 µM and the TGI is more than 100 µM.
In the case of `Cc1ccc(S(=O)(=O)NCCN2c3nc4ccccc4cc3Sc3cc4ccccc4nc32)cc1`, the GI50 is 13.1 µM and the TGI was more than 100 µM.
With `CC(=O)Oc1ccc2c(c1)CC[C@@H]1C2[C@@H](O[N+](=O)[O-])C[C@@]2(C)C1CC[C@@H]2O` (some centres not stated), the GI50 is 22.5 µM and the TGI is 89.2 µM.
With `CCc1ccc(C2=C(O)C(=O)C(c3ccc(CC)cc3)=C(O)C2=O)cc1`, the GI50 is 1.86 µM and the TGI worked out at 6.26 µM.
Consider `O=C(N/N=C/c1ccc(F)cc1)c1[nH]c2ccc(I)cc2c1-c1ccccc1`, for which the GI50 was 0.345 µM and the TGI was found to be 13.9 µM.
As for `CCN(CC)C(=S)SSC1CCCCC1`, the GI50 is 19.4 µM and the TGI stood at 49.4 µM.
With `OC1CCC(Oc2cccc3cnc(Nc4ccc5nc[nH]c5c4)nc23)CC1` (configuration not stated), the GI50 was 0.327 µM and the TGI came out at 1.37 µM.
As for `CC1(C)C(=O)/C(=C\c2ccco2)C[C@]2(C)[C@H]3CC=C4[C@@H]5C[C@](C)(C(=O)O)CC[C@]5(C)CC[C@@]4(C)[C@]3(C)CC[C@@H]12`, the GI50 was 10.7 µM and the TGI is 26.5 µM.
For `O=[N+]([O-])/C=C\c1ccc2c(c1)OCO2`, in that order: 2.17 µM and 5.82 µM.
For `C=C(CNCCO)[C@@H]1CC[C@]2(CO)CC[C@]3(C)[C@H](CC[C@@H]4[C@@]5(C)CCC(NCCc6ccc(O)cc6)C(C)(C)[C@@H]5CC[C@]43C)[C@@H]12` (some centres not stated), the GI50 is 0.782 µM and the TGI came out at 2.34 µM.
As to `O=Nc1c2cccnc2n2nnc3ccc(Cl)cc3c12`, the GI50 is 0.136 µM and the TGI turned out to be 0.701 µM.
For `CCC(=O)N1C/C(=C/c2ccc(OC)cc2)C(=O)/C(=C/c2ccc(OC)cc2)C1`, the GI50 was 1.85 µM and the TGI turned out to be 4.92 µM.
For `COC(=O)c1ccc2c(c1)c1c(C)c3cnccc3c(C)c1n2C`, the GI50 is 0.225 µM and the TGI was 0.677 µM.
With `C=C1C(=O)O[C@H]2[C@H]1CC/C(COC(=O)c1ccc(C(=O)O)s1)=C\CC[C@@]1(C)O[C@@H]21`, the GI50 is 1.22 µM and the TGI was 3.09 µM.
For `Cc1cc(O)cc(C)c1/C=C/c1cncc(C(=O)N(C)C)c1`, the GI50 was more than 25 µM and the TGI is more than 25 µM.
With `CCN(CC)CC(C)Nc1ccc(C)c2sc3ccccc3c(=O)c12` (configuration not stated), the GI50 was 2.57 µM and the TGI stood at 7.57 µM.
For `CC1=CC[C@@H]2C(C)(C)[C@@H](O)CC[C@@]2(C)[C@@H]1COc1ccc2ccc(=O)oc2c1`, the GI50 was 3.11 µM and the TGI was 15 µM.
Regarding `CN(C)CCNc1cccc2sc3ccc(O)cc3c(=O)c12`, the GI50 is 1.96 µM and the TGI amounted to 4.56 µM.
The like results for `COc1cccc2c(=O)c3c(sc12)c(NCCCN)nc1ccccc13` were, in that order, 1.63 µM and 3.2 µM.
In the case of `O=C(/C=C/c1ccc([N+](=O)[O-])o1)NNC(=O)c1cc2ccccc2cc1O`, the GI50 is 0.721 µM and the TGI worked out at 3.59 µM.
In the case of `COc1cccc(C2c3cc4c(cc3OC(N3CCOCC3)C2C)OCO4)c1O` (configuration not stated), the GI50 was 4.26 µM and the TGI is more than 100 µM.
With `COc1ccc(-c2cn3ccnc3c(-c3ccc4ncn(C5CCCCC5)c4c3)n2)cc1`, the GI50 is 0.863 µM and the TGI is more than 100 µM.
For the compound `Cc1ccc2c(c1)sc(-c1ccc(N(C)C)cc1)[n+]2C`, the GI50 is 0.302 µM and the TGI was 5.74 µM.
